Molecular target: T1, human mAChR M4 (Homo sapiens, UniProt P08173)
T1 construct: expressed in transfected cells
T1 sequence (P08173 1-479): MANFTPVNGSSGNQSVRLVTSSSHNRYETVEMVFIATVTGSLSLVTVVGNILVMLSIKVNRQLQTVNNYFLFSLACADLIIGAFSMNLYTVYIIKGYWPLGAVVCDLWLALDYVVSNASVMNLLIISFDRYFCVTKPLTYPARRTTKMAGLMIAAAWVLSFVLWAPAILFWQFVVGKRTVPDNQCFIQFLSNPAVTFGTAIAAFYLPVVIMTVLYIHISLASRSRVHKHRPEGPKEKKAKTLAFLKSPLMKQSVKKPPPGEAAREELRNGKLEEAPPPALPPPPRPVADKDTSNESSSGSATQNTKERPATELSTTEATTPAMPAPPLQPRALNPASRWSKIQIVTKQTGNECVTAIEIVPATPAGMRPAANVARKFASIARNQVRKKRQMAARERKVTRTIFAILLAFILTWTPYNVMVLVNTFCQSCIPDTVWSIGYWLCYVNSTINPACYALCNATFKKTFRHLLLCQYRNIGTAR
Test: mAChR M4 cell-based functional assay (calcium mobilization, CHO-K1 hM4-Gqi5 cells)
Conditions: for Emax at 30 µM: CHO-K1, % ACh maximum at 30 μM; for EC50: positive allosteric modulator activity, increase in the EC20 acetylcholine response, CHO-K1 hM4-Gqi5 cells, read-out: Human M4 EC50
Procedure, shortened: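 CHO-K1 cells stably expressing human M4 with chimeric Gqi5, loaded with Fluo-4 AM; compounds given as 11-point 1:3 curves and calcium flux read on FDSS at 1 Hz. Acetylcholine EC20 added at 144 s, EC80 at 230 s; agonist, PAM (EC20 potentiation) and antagonist (EC80 inhibition) EC50/Emax from four-parameter fits.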

Structure (SMILES) | Emax at 30 µM (human M4) | EC50 | Emax (% ACh maximum at 30 μM, human M4) | Emax (CHO-K1)
Cc1cc(C#N)cnc1N1CCc2ncc(-c3ccns3)cc2C1 [compound 291, 6-(3-(isothiazol-5-yl)-7,8-dihydro-1,6-naphthyridin-6(5H)-yl)-5-methylnicotinonitrile] | 96% | 88 nM |  | 
Cc1cc(C(=O)NCc2csc3ccccc23)cnc1N1CCc2ncc(-c3cn(C)nc3C)cc2C1 [Example 452, N-(benzo[b]thiophen-3-ylmethyl)-6-(3-(1,3-dimethyl-1H-pyrazol-4-yl)-7,8-dihydro-1,6-naphthyridin-6(5H)-yl)-5-methylnicotinamide] | 89% | 1790 nM |  | 
Cc1cc(C#N)nnc1N1CCc2ncc(N3CCN(C)C(=O)C3)cc2C1 [Example 410, 5-methyl-6-(3-(4-methyl-3-oxopiperazin-1-yl)-7,8-dihydro-1,6-naphthyridin-6(5H)-yl)pyridazine-3-carbonitrile] | 89% | 3800 nM |  | 
Cc1c(C(=O)NCc2cncs2)nnc(N2CCc3ncc(C(F)(F)F)cc3C2)c1C [Example 465, 4,5-dimethyl-N-(thiazol-5-ylmethyl)-6-(3-(trifluoromethyl)-7,8-dihydro-1,6-naphthyridin-6(5H)-yl)pyridazine-3-carboxamide] | 101% | 44 nM |  | 
Cc1cc(C#N)cnc1N1CCc2ncc(N3CC(C)Cn4nccc43)cc2C1 (stereo not shown) [Example 384, 5-methyl-6-(3-(6-methyl-6,7-dihydropyrazolo[1,5-a]pyrimidin-4(5H)-yl)-7,8-dihydro-1,6-naphthyridin-6(5H)-yl)nicotinonitrile] | 100% | 185 nM |  | 
[2H]C([2H])([2H])c1cnc2c(c1)CN(c1nnc(C#N)cc1C)CC2 [Example 421, 5-methyl-6-(3-(methyl-d3)-7,8-dihydro-1,6-naphthyridin-6(5H)-yl)pyridazine-3-carbonitrile] |  | 336 nM |  | 89%
Cc1nc(C)c(C)c(N2CCc3ncc(-c4ccc(N5CCOCC5)nc4)cc3C2)n1 [compound 227, 4-(5-(6-(2,5,6-trimethylpyrimidin-4-yl)-5,6,7,8-tetrahydro-1,6-naphthyridin-3-yl)pyridin-2-yl)morpholine] | 67% | 266 nM |  | 
Cc1c(Cl)nc(C2CC2)nc1N1CCc2ncccc2C1 [compound 84, 6-(6-chloro-2-cyclopropyl-5-methyl-pyrimidin-4-yl)-7,8-dihydro-5H-1,6-naphthyridine] |  | 2240 nM |  | 71%
Cc1nc(Cl)c(C)c(N2CCc3ncc(-c4cnc(C)s4)cc3C2)n1 [compound 199, 5-[6-(6-chloro-2,5-dimethyl-pyrimidin-4-yl)-7,8-dihydro-5H-1,6-naphthyridin-3-yl]-2-methyl-thiazole] | 81% | 140 nM |  | 
[2H]C1([2H])Cc2ncc(Nc3ccncc3C)cc2C([2H])([2H])N1c1nnc(C#N)c(C)c1C [Example 609, 4,5-dimethyl-6-(3-((3-methylpyridin-4-yl)amino)-7,8-dihydro-1,6-naphthyridin-6(5H)-yl-5,5,7,7-d4)pyridazine-3-carbonitrile] | 56% | 753 nM |  | 
Cc1cc(C#N)cnc1N1CCc2ncc(-c3cc(F)ncc3F)cc2C1 [Example 337, 6-(3-(2,5-difluoropyridin-4-yl)-7,8-dihydro-1,6-naphthyridin-6(5H)-yl)-5-methylnicotinonitrile] | 71% | 270 nM |  | 
Cc1cc(C#N)cnc1N1Cc2cc(N3CCOCC3)cnc2C(C)C1 (single isomer, unassigned) [Example 408, 5-methyl-6-(8-methyl-3-morpholino-7,8-dihydro-1,6-naphthyridin-6(5H)-yl)nicotinonitrile] |  | 685 nM | 65% | 
Cc1cc(C(=O)N2CC(F)(F)C2)nnc1N1CCc2ncc(CC(F)(F)F)cc2C1 [Example 583, (3,3-difluoroazetidin-1-yl)(5-methyl-6-(3-(2,2,2-trifluoroethyl)-7,8-dihydro-1,6-naphthyridin-6(5H)-yl)pyridazin-3-yl)methanone] | 91% | 121 nM |  | 
Cc1c(C#N)nnc(N2Cc3cc(C(F)(F)F)cnc3C(C)C2)c1C (stereo not shown) [Example 348, 4,5-dimethyl-6-(8-methyl-3-(trifluoromethyl)-7,8-dihydro-1,6-naphthyridin-6(5H)-yl)pyridazine-3-carbonitrile] | 70% | 331 nM |  | 
Cc1cnccc1CNC(=O)c1cnc(N2CCc3ncc(-c4cn(C)nc4C)cc3C2)c(C)c1 [Example 451, 6-(3-(1,3-dimethyl-1/-pyrazol-4-yl)-7,8-dihydro-1,6-naphthyridin-6(5H)-yl)-5-methyl-N-((3-methylpyridin-4-yl)methyl)nicotinamide] | 92% | 150 nM |  | 
Cc1cnc2c(c1)CN(c1nnc(C#N)c(C)c1C)CC2 [compound 117, 4,5-dimethyl-6-(3-methyl-7,8-dihydro-5H-1,6-naphthyridin-6-yl)pyridazine-3-carbonitrile] |  | 3650 nM |  | 55%
Cc1c(C#N)nnc(N2CCc3ncc(Nc4ccc(Cl)cc4F)cc3C2)c1C [compound 46, 6-[3-(4-chloro-2-fluoro-anilino)-7,8-dihydro-5H-1,6-naphthyridin-6-yl]-4,5-dimethyl-pyridazine-3-carbonitrile] | 34% | 970 nM |  | 
Cc1cc(C(=O)NCc2cncs2)cnc1N1CCc2ncc(Nc3ccnn3C)cc2C1 [Example 449, 5-methyl-6-(3-((1-methyl-1H-pyrazol-5-yl)amino)-7,8-dihydro-1,6-naphthyridin-6(5H)-yl)-N-(thiazol-5-ylmethyl)nicotinamide] | 105% | 84 nM |  | 
Cc1cc(C(=O)NCc2cncs2)cnc1N1CCc2ncccc2C1 [compound 62, 6-(7,8-dihydro-5H-1,6-naphthyridin-6-yl)-5-methyl-N-(thiazol-5-ylmethyl)pyridine-3-carboxamide] | 78% | 760 nM |  | 

The next lines start with results.

Emax at 30 µM (human M4) | EC50 | Emax (% ACh maximum at 30 μM, human M4) | Structure (SMILES) | Emax (CHO-K1)
66% | 554 nM |  | Cc1c(C#N)nnc(N2CCc3ncc(-c4ccc(N5CC(C(C)(C)O)C5)nc4)cc3C2)c1C [Example 329, 6-(3-(6-(3-(2-hydroxypropan-2-yl)azetidin-1-yl)pyridin-3-yl)-7,8-dihydro-1,6-naphthyridin-6(5H)-yl)-4,5-dimethylpyridazine-3-carbonitrile] | 
82% | 1440 nM |  | Cc1c(Cl)nc(C(F)(F)F)nc1N1CCc2ncc(Nc3cccnc3F)cc2C1 [compound 249, 6-(6-chloro-5-methyl-2-(trifluoromethyl)pyrimidin-4-yl)-N-(2-fluoropyridin-3-yl)-5,6,7,8-tetrahydro-1,6-naphthyridin-3-amine] | 
111% | 50 nM |  | [2H]C([2H])([2H])c1cnc2c(c1)CN(c1nnc(C(=O)NCc3ccncc3)cc1C)CC2 [Example 579, 5-methyl-6-(3-(methyl-d3)-7,8-dihydro-1,6-naphthyridin-6(5H)-yl)-N-(pyridin-4-ylmethyl)pyridazine-3-carboxamide] | 
90% | 145 nM |  | Cc1nc(C)c(C)c(N2CCc3ncc(Oc4cc(F)ccc4F)cc3C2)n1 [compound 263, 3-(2,5-difluorophenoxy)-6-(2,5,6-trimethylpyrimidin-4-yl)-5,6,7,8-tetrahydro-1,6-naphthyridine] | 
33% | 560 nM |  | Cc1c(C#N)nnc(N2CCc3ncc(-c4ccc5ncn(C)c5c4)cc3C2)c1C [Example 17] | 
84% | 2810 nM |  | Cc1cc(C(=O)N(C)Cc2ccncc2)nnc1N1CCc2ncc(C(F)(F)F)cc2C1 [Example 506, N,5-dimethyl-N-(pyridin-4-ylmethyl)-6-(3-(trifluoromethyl)-7,8-dihydro-1,6-naphthyridin-6(5H)-yl)pyridazine-3-carboxamide] | 
86% | 8 nM |  | [2H]C1([2H])Cc2ncc(Nc3ccccc3F)cc2C([2H])([2H])N1c1nnc(C#N)cc1C [Example 611, 6-(3-((2-fluorophenyl)amino)-7,8-dihydro-1,6-naphthyridin-6(5H)-yl-5,5,7,7-d4)-5-methylpyridazine-3-carbonitrile] | 
94% | 1700 nM |  | Cc1ccc(F)c(Oc2cnc3c(c2)CN(c2ncc(C#N)cc2C)CC3)c1 [Example 368, 6-(3-(2-fluoro-5-methylphenoxy)-7,8-dihydro-1,6-naphthyridin-6(5H)-yl)-5-methylnicotinonitrile] | 
76% | 4100 nM |  | Cc1cc(C(=O)NCC(C)(C)O)cnc1N1CCc2ncc(-c3cn(C)nc3C)cc2C1 [Example 461, 6-(3-(1,3-dimethyl-1H-pyrazol-4-yl)-7,8-dihydro-1,6-naphthyridin-6(5H)-yl)-N-(2-hydroxy-2-methylpropyl)-5-methylnicotinamide] | 
81% | 680 nM |  | Cc1cc(C#N)cnc1N1CCc2ncc(-c3cnn(Cc4ccccc4)c3)cc2C1 [compound 97, 6-[3-(1-benzylpyrazol-4-yl)-7,8-dihydro-5H-1,6-naphthyridin-6-yl]-5-methyl-pyridine-3-carbonitrile] | 

— patent US20250230155A1 (Vanderbilt University, priority 2021, published 2025)
